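GI50: concentration for 50% inhibition of growth. TGI: total growth inhibition.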
Columns and labels:
Test in all cases: NCI-60 cell line screen, 384-well format
M14 melanoma = test system: M14 melanoma
NCI-H522 lung = test system: NCI-H522 lung
HT29 colon = test system: HT29 colon
CAKI-1 renal = test system: CAKI-1 renal
HOP-92 NSCLC = test system: HOP-92 NSCLC
OVCAR-3 ovarian = test system: OVCAR-3 ovarian
DU-145 prostate = test system: DU-145 prostate
CCRF-CEM leukemia = test system: CCRF-CEM leukemia
HS 578T breast = test system: HS 578T breast
NCI-H460 NSCLC = test system: NCI-H460 NSCLC
MCF7 breast = test system: MCF7 breast
SF-295 CNS = test system: SF-295 CNS
IGROV1 ovarian = test system: IGROV1 ovarian
HCT-15 colon = test system: HCT-15 colon
LOX IMVI melanoma = test system: LOX IMVI melanoma
MALME-3M melanoma = test system: MALME-3M melanoma
UACC-62 melanoma = test system: UACC-62 melanoma
BT-549 breast = test system: BT-549 breast
NCI-H322M lung = test system: NCI-H322M lung
SK-MEL-5 melanoma = test system: SK-MEL-5 melanoma
OVCAR-5 ovarian = test system: OVCAR-5 ovarian
U251 glioblastoma = test system: U251 glioblastoma
MOLT-4 leukemia = test system: MOLT-4 leukemia
ACHN renal = test system: ACHN renal
SF-539 CNS = test system: SF-539 CNS
PC-3 prostate = test system: PC-3 prostate
OVCAR-4 ovarian = test system: OVCAR-4 ovarian
SK-MEL-28 melanoma = test system: SK-MEL-28 melanoma
KM12 colon = test system: KM12 colon
HCT-116 colon = test system: HCT-116 colon
K-562 leukemia = test system: K-562 leukemia
SW-620 colon = test system: SW-620 colon
HL-60(TB) leukemia = test system: HL-60(TB) leukemia
RPMI-8226 leukemia = test system: RPMI-8226 leukemia
SK-OV-3 ovarian = test system: SK-OV-3 ovarian
NCI-H23 lung = test system: NCI-H23 lung
786-0 renal = test system: 786-0 renal
MDA-MB-468 breast = test system: MDA-MB-468 breast
A549 NSCLC = test system: A549 NSCLC
A498 renal = test system: A498 renal
UACC-257 melanoma = test system: UACC-257 melanoma
OVCAR-8 ovarian = test system: OVCAR-8 ovarian
SF-268 CNS = test system: SF-268 CNS
T-47D breast = test system: T-47D breast
SNB-19 CNS = test system: SNB-19 CNS
UO-31 renal = test system: UO-31 renal
TK-10 renal = test system: TK-10 renal
SNB-75 CNS = test system: SNB-75 CNS
EKVX NSCLC = test system: EKVX NSCLC
COLO 205 colon = test system: COLO 205 colon
HCC-2998 colon = test system: HCC-2998 colon
HOP-62 NSCLC = test system: HOP-62 NSCLC
SN12C renal = test system: SN12C renal
NCI-H226 lung = test system: NCI-H226 lung
RXF 393 renal = test system: RXF 393 renal
NCI/ADR-RES ovarian = test system: NCI/ADR-RES ovarian
MDA-MB-231 breast = test system: MDA-MB-231 breast
MDA-MB-435 melanoma = test system: MDA-MB-435 melanoma

## CN[C@@H](C)C(=O)N[C@H]1CN(C(=O)CC(C)C)CC[C@H]2CC[C@@H](C(=O)NC(c3ccccc3)c3ccccc3)N2C1=O
M14 melanoma
  GI50: > 100 µM
  TGI: > 100 µM
NCI-H522 lung
  GI50: 5.58 µM
  TGI: > 100 µM
HT29 colon
  GI50: 39.8 µM
  TGI: > 100 µM
CAKI-1 renal
  GI50: > 100 µM
  TGI: > 100 µM
HOP-92 NSCLC
  GI50: 13.8 µM
  TGI: 50.7 µM
OVCAR-3 ovarian
  GI50: > 100 µM
  TGI: > 100 µM
DU-145 prostate
  GI50: > 100 µM
  TGI: > 100 µM
CCRF-CEM leukemia
  GI50: 15.8 µM
  TGI: > 100 µM
HS 578T breast
  GI50: 16.4 µM
  TGI: > 100 µM
NCI-H460 NSCLC
  GI50: > 100 µM
  TGI: > 100 µM
MCF7 breast
  GI50: 83.8 µM
  TGI: > 100 µM
SF-295 CNS
  GI50: > 100 µM
  TGI: > 100 µM
IGROV1 ovarian
  GI50: > 100 µM
  TGI: > 100 µM
HCT-15 colon
  GI50: > 100 µM
  TGI: > 100 µM
LOX IMVI melanoma
  GI50: > 100 µM
  TGI: > 100 µM
MALME-3M melanoma
  GI50: 0.542 µM
  TGI: 11 µM
UACC-62 melanoma
  GI50: > 100 µM
  TGI: > 100 µM
BT-549 breast
  GI50: 21.8 µM
  TGI: > 100 µM
NCI-H322M lung
  GI50: > 100 µM
  TGI: > 100 µM
SK-MEL-5 melanoma
  GI50: 3.63 µM
  TGI: 21.8 µM
OVCAR-5 ovarian
  GI50: > 100 µM
  TGI: > 100 µM
U251 glioblastoma
  GI50: > 100 µM
  TGI: > 100 µM
MOLT-4 leukemia
  GI50: 35.1 µM
  TGI: > 100 µM
ACHN renal
  GI50: > 100 µM
  TGI: > 100 µM
SF-539 CNS
  GI50: > 100 µM
  TGI: > 100 µM
PC-3 prostate
  GI50: > 100 µM
  TGI: > 100 µM
OVCAR-4 ovarian
  GI50: 0.167 µM
  TGI: 1.05 µM
SK-MEL-28 melanoma
  GI50: > 100 µM
  TGI: > 100 µM
KM12 colon
  GI50: > 100 µM
  TGI: > 100 µM
HCT-116 colon
  GI50: > 100 µM
  TGI: > 100 µM
K-562 leukemia
  GI50: 56.6 µM
  TGI: > 100 µM
SW-620 colon
  GI50: > 100 µM
  TGI: > 100 µM
HL-60(TB) leukemia
  GI50: 1.56 µM
  TGI: 12.1 µM
RPMI-8226 leukemia
  GI50: 24.4 µM
  TGI: > 100 µM
SK-OV-3 ovarian
  GI50: 0.357 µM
  TGI: 9.16 µM
NCI-H23 lung
  GI50: 49 µM
  TGI: > 100 µM
786-0 renal
  GI50: > 100 µM
  TGI: > 100 µM
MDA-MB-468 breast
  GI50: 2.78 µM
  TGI: 72.1 µM
A549 NSCLC
  GI50: > 100 µM
  TGI: > 100 µM
A498 renal
  GI50: > 100 µM
  TGI: > 100 µM
UACC-257 melanoma
  GI50: 24.7 µM
  TGI: 55 µM
OVCAR-8 ovarian
  GI50: 68.8 µM
  TGI: > 100 µM
SF-268 CNS
  GI50: > 100 µM
  TGI: > 100 µM
T-47D breast
  GI50: > 100 µM
  TGI: > 100 µM
SNB-19 CNS
  GI50: > 100 µM
  TGI: > 100 µM
UO-31 renal
  GI50: > 100 µM
  TGI: > 100 µM
TK-10 renal
  GI50: > 100 µM
  TGI: > 100 µM
SNB-75 CNS
  GI50: 49.9 µM
  TGI: > 100 µM
EKVX NSCLC
  GI50: > 100 µM
  TGI: > 100 µM
COLO 205 colon
  GI50: > 100 µM
  TGI: > 100 µM
HCC-2998 colon
  GI50: 12.5 µM
  TGI: > 100 µM
HOP-62 NSCLC
  GI50: 4.4 µM
  TGI: > 100 µM
SN12C renal
  GI50: > 100 µM
  TGI: > 100 µM
NCI-H226 lung
  GI50: > 100 µM
  TGI: > 100 µM
RXF 393 renal
  GI50: 0.823 µM
  TGI: 20 µM
NCI/ADR-RES ovarian
  GI50: > 100 µM
  TGI: > 100 µM

## Cc1cccc(-c2nn3c(c2-c2ccnc4ccc(C(N)=O)cc24)CCC3)n1
NCI-H522 lung
  GI50: 1.8 µM
  TGI: 4.1 µM
HT29 colon
  GI50: 2.37 µM
  TGI: 6.01 µM
CAKI-1 renal
  GI50: 3.9 µM
  TGI: 14.1 µM
OVCAR-3 ovarian
  GI50: 2.15 µM
  TGI: 3.96 µM
HS 578T breast
  GI50: 1.74 µM
  TGI: 3.65 µM
MDA-MB-231 breast
  GI50: 4.81 µM
  TGI: 16.6 µM
NCI-H460 NSCLC
  GI50: 2.37 µM
  TGI: 5.92 µM
HCT-15 colon
  GI50: 2.97 µM
  TGI: 10.6 µM
MDA-MB-435 melanoma
  GI50: 1.95 µM
  TGI: 3.83 µM
LOX IMVI melanoma
  GI50: 2.77 µM
  TGI: 7.47 µM
MALME-3M melanoma
  GI50: 5.57 µM
  TGI: 16.4 µM
BT-549 breast
  GI50: 2.41 µM
  TGI: 5.7 µM
NCI-H322M lung
  GI50: 3.86 µM
  TGI: 16.6 µM
SK-MEL-5 melanoma
  GI50: 2.55 µM
  TGI: 6.56 µM
U251 glioblastoma
  GI50: 2.65 µM
  TGI: 8.58 µM
SF-539 CNS
  GI50: 2.44 µM
  TGI: 5.39 µM
PC-3 prostate
  GI50: 3.64 µM
  TGI: 11.8 µM
SK-MEL-28 melanoma
  GI50: 6.9 µM
  TGI: 19.7 µM
KM12 colon
  GI50: 2.47 µM
  TGI: 6.04 µM
HCT-116 colon
  GI50: 3.65 µM
  TGI: 12.3 µM
SW-620 colon
  GI50: 5.1 µM
  TGI: 15.6 µM
HL-60(TB) leukemia
  GI50: 2.08 µM
  TGI: 3.57 µM
RPMI-8226 leukemia
  GI50: 1.74 µM
  TGI: 3.13 µM
SK-OV-3 ovarian
  GI50: 3.17 µM
  TGI: 10.4 µM
A549 NSCLC
  GI50: 3.93 µM
  TGI: 14.3 µM
A498 renal
  GI50: 3.34 µM
  TGI: 12 µM
UACC-257 melanoma
  GI50: 6.22 µM
  TGI: 19.7 µM
SF-268 CNS
  GI50: 3.05 µM
  TGI: 9.5 µM
T-47D breast
  GI50: 3.64 µM
  TGI: 16.8 µM
SNB-75 CNS
  GI50: 2.52 µM
  TGI: 11.3 µM
EKVX NSCLC
  GI50: 3.92 µM
  TGI: 12.8 µM
HCC-2998 colon
  GI50: 3.78 µM
  TGI: 13.2 µM
RXF 393 renal
  GI50: 2.02 µM
  TGI: 4.6 µM
NCI/ADR-RES ovarian
  GI50: 2.17 µM
  TGI: 4.48 µM

Reference: PubChem BioAssay (NCI)
